The text below walks through data of patent publication US20100311714A1, “1H-IMIDAZO[4,5-c]QUINOLINONE COMPOUNDS” (priority 2009, published 2010).

Data set [1] is described as follows: High-throughput equilibrium solubility at pH 6.8. Format: physicochemical. As to conditions: pH 6.8, aqueous buffer, thermodynamic from solid; read-out: HT-Eq Sol/pH 6.8. The method in brief:
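Solubility was measured at pH 6.8 following the cited Zhou et al. (2007) procedure.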

Data set [2] in a line: Parallel Artificial Membrane Permeability Assay (PAMPA) at pH 6.8. Format: physicochemical. A digest of the protocol: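 PAMPA permeability measured at pH 6.8 following the Wohnsland and Faller method; value reported as log Pe.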
Another data set deals with T1, mTOR (Homo sapiens, UniProt P42345).
T1 construct: purchased Invitrogen Corporation (Carlsbad/Calif., USA) PV4753
T1 sequence (P42345 1360-2549 limits assumed): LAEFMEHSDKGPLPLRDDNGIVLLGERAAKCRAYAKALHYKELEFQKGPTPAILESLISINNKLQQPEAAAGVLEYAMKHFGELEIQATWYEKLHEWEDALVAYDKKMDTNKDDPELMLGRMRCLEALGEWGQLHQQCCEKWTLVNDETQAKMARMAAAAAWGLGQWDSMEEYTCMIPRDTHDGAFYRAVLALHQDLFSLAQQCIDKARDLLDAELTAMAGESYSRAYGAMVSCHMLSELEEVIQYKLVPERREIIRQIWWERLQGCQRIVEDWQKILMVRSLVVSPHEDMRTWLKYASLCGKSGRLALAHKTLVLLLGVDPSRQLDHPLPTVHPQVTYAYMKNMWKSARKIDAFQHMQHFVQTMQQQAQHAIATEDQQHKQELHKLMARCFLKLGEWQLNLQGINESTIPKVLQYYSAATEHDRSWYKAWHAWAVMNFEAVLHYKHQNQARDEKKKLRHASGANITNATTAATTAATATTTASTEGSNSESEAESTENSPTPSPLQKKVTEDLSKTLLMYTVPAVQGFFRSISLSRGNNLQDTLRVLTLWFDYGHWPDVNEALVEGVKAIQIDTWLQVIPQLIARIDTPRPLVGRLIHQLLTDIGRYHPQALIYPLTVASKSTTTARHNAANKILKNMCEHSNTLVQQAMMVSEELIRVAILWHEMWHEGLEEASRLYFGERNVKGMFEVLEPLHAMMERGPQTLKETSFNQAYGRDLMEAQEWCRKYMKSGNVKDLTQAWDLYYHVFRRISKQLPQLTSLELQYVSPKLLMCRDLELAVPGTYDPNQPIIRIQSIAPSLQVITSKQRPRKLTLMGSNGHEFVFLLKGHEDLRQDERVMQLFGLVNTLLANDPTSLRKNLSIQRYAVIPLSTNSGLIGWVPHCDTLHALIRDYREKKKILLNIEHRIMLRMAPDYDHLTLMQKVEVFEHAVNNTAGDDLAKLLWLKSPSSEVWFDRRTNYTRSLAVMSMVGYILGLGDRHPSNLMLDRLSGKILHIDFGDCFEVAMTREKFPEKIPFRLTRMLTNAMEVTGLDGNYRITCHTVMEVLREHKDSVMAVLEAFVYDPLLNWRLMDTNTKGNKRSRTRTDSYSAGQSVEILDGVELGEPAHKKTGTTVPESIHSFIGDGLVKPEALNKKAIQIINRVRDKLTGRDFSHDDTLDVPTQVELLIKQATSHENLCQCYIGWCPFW
As to the kind of experiment: Biochemical assay for m-TOR by TR-FRET. As to conditions: read-out: EPK_mTOR/IC50. The method in brief:
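mTOR (0.5 nM) phosphorylates GFP-4EBP1 (400 nM) with 8 μM ATP at rt in 50 mM HEPES pH 7.5, 10 mM MnCl2, 50 mM NaCl, 1 mM EGTA, 1 mM DTT; compounds 0.003–10 μM final. EDTA stop with Tb-anti-p4EBP1[pT46] antibody (0.5 nM); TR-FRET read after 15 min against no-enzyme and vehicle controls.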
Background: In TR-FRET formats the signal depends on donor and acceptor labels being close together.

Molecules are shown by their SMILES. In brackets after ≈: the same amount, converted by molar mass.

Turning to `COc1cc(-c2ccc3ncc4c(c3c2)n(-c2ccc(N3CC(O)C3)nc2C)c(=O)n4C)cnc1CO` [Example 29.5, 1-[6-(3-Hydroxy-azetidin-1-yl)-2-methyl-pyridin-3-yl]-8-(6-hydroxymethyl-5-methoxy-pyridin-3-yl)-3-methyl-1,3-dihydro-imidazo[4,5-c]quinolin-2-one], the solubility thermodynamic in data set [1] was determined as 256 µg/mL (≈ 513 µM). Also, in data set [2], the “HT-Perm logPe pH6.8” value is given as −7.8. The IC50 on mTOR turned out to be 61 nM.
For the compound `CNc1ncc(-c2ccc3ncc4c(c3c2)n(-c2ccc(C(C)(C)O)nc2C)c(=O)n4C)cc1F` [Example 31.1, 8-(5-Fluoro-6-methylamino-pyridin-3-yl)-1-[6-(1-hydroxy-1-methyl-ethyl)-2-methyl-pyridin-3-yl]-3-methyl-1,3-dihydro-imidazo[4,5-c]quinolin-2-one], the solubility thermodynamic in data set [1] was found to be 3 µg/mL (≈ 6.35 µM). The “HT-Perm logPe pH6.8” value in data set [2] is recorded as −4.1. Besides, the IC50 at mTOR amounted to 21 nM.
On the same counts, the results for `CCOc1ccc(-c2ccc3ncc4c(c3c2)n(-c2ccc(C(C)(C)O)nc2C)c(=O)n4C)cn1` [Example 31.4, 8-(6-Ethoxy-pyridin-3-yl)-1-[6-(1-hydroxy-1-methyl-ethyl)-2-methyl-pyridin-3-yl]-3-methyl-1,3-dihydro-imidazo[4,5-c]quinolin-2-one] are 5 µg/mL (≈ 10.6 µM), −3.7 and 75 nM.
On the same counts, the results for `Cc1nc(C(C)(C)O)ccc1-n1c(=O)n(C)c2cnc3ccc(-c4cnc(N)c(C(F)(F)F)c4)cc3c21` [Example 31.5, 8-(6-Amino-5-trifluoromethyl-pyridin-3-yl)-1-[6-(1-hydroxy-1-methyl-ethyl)-2-methyl-pyridin-3-yl]-3-methyl-1,3-dihydro-imidazo[4,5-c]quinolin-2-one] are 3 µg/mL (≈ 5.9 µM), −4.3 and 6 nM.
Consider `Cc1nc(C(C)(C)O)ccc1-n1c(=O)n(C)c2cnc3ccc(-c4cncc(C(C)(C)C#N)c4)cc3c21` [Example 31.6, 2-(5-{1-[6-(1-Hydroxy-1-methyl-ethyl)-2-methyl-pyridin-3-yl]-3-methyl-2-oxo-2,3-dihydro-1H-imidazo[4,5-c]quinolin-8-yl}-pyridin-3-yl)-2-methyl-propionitrile], for which the solubility thermodynamic in data set [1] was determined as 3 µg/mL (≈ 6.09 µM). The “HT-Perm logPe pH6.8” value in data set [2] was −4.4. The IC50 at mTOR was found to be 95 nM.
Consider `CCNc1ncc(-c2ccc3ncc4c(c3c2)n(-c2ccc(C(C)(C)O)nc2C)c(=O)n4C)cn1` [Example 31.7, 8-(2-Ethylamino-pyrimidin-5-yl)-1-[6-(1-hydroxy-1-methyl-ethyl)-2-methyl-pyridin-3-yl]-3-methyl-1,3-dihydro-imidazo[4,5-c]quinolin-2-one], for which the solubility thermodynamic in data set [1] was 14 µg/mL (≈ 29.8 µM). Moreover, in data set [2], the “HT-Perm logPe pH6.8” value is −4.6. In addition, the IC50 on mTOR came out at 21 nM.
Regarding `Cc1nc(C(C)(C)O)ccc1-n1c(=O)n(C)c2cnc3ccc(-c4cncc(C5(C#N)CCC5)c4)cc3c21` [Example 31.8, 1-(5-{1-[6-(1-Hydroxy-1-methyl-ethyl)-2-methyl-pyridin-3-yl]-3-methyl-2-oxo-2,3-dihydro-1H-imidazo[4,5-c]quinolin-8-yl}-pyridin-3-yl)-cyclobutanecarbonitrile], the solubility thermodynamic in data set [1] worked out at 111 µg/mL (≈ 220 µM). Besides, the “HT-Perm logPe pH6.8” value in data set [2] is recorded as −4.3. For the same compound, at mTOR, the IC50 is 122 nM.
With `CNc1ncc(-c2ccc3ncc4c(c3c2)n(-c2ccc(N3CC[C@H](O)C3)nc2C)c(=O)n4C)cn1` [Example 32.1, 1-[6-((S)-3-Hydroxy-pyrrolidin-1-yl)-2-methyl-pyridin-3-yl]-3-methyl-8-(2-methylamino-pyrimidin-5-yl)-1,3-dihydro-imidazo[4,5-c]quinolin-2-one], the solubility thermodynamic in data set [1] is 64 µg/mL (≈ 133 µM). In addition, in data set [2], the “HT-Perm logPe pH6.8” value was −5. Also, the IC50 on mTOR is 4 nM.
As for `CNc1ncc(-c2ccc3ncc4c(c3c2)n(-c2ccc(N3CC[C@H](O)C3)nc2C)c(=O)n4C)cc1F` [Example 32.2, 8-(5-Fluoro-6-methylamino-pyridin-3-yl)-1-[6-((S)-3-hydroxy-pyrrolidin-1-yl)-2-methyl-pyridin-3-yl]-3-methyl-1,3-dihydro-imidazo[4,5-c]quinolin-2-one], the solubility thermodynamic in data set [1] was 7 µg/mL (≈ 14 µM). In addition, in data set [2], the “HT-Perm logPe pH6.8” value is reported as −4.8. Moreover, at mTOR, the IC50 was 10 nM.
In the same order, the values of `COc1ncc(-c2ccc3ncc4c(c3c2)n(-c2ccc(N3CC[C@H](O)C3)nc2C)c(=O)n4C)c(OC)n1` [Example 32.3, 8-(2,4-Dimethoxy-pyrimidin-5-yl)-1-[6-((S)-3-hydroxy-pyrrolidin-1-yl)-2-methyl-pyridin-3-yl]-3-methyl-1,3-dihydro-imidazo[4,5-c]quinolin-2-one] are 30 µg/mL (≈ 58.4 µM), −5.3 and 15 nM.
For the compound `CNc1ncc(-c2ccc3ncc4c(c3c2)n(-c2ccc(N3CC[C@H](O)C3)nc2C)c(=O)n4C)cc1C(F)(F)F` [Example 32.5, 1-[6-((S)-3-Hydroxy-pyrrolidin-1-yl)-2-methyl-pyridin-3-yl]-3-methyl-8-(6-methylamino-5-trifluoromethyl-pyridin-3-yl)-1,3-dihydro-imidazo[4,5-c]quinolin-2-one], the solubility thermodynamic in data set [1] was found to be 49 µg/mL (≈ 89.2 µM). In addition, in data set [2], the “HT-Perm logPe pH6.8” value was −4.5. The IC50 on mTOR worked out at 9 nM.
For `Cc1nc(N2CC[C@H](O)C2)ccc1-n1c(=O)n(C)c2cnc3ccc(-c4cncc(OC(C)C)c4)cc3c21` [Example 32.8, 1-[6-((S)-3-Hydroxy-pyrrolidin-1-yl)-2-methyl-pyridin-3-yl]-8-(5-isopropoxy-pyridin-3-yl)-3-methyl-1,3-dihydro-imidazo[4,5-c]quinolin-2-one], the solubility thermodynamic in data set [1] amounted to 120 µg/mL (≈ 235 µM). For the same compound, in data set [2], the “HT-Perm logPe pH6.8” value is reported as −3.8. Moreover, the IC50 on mTOR worked out at 42.5 nM.
Consider `Cc1nc(C(F)(F)F)ccc1-n1c(=O)n(C)c2cnc3ccc(-c4cncc(C(C)(C)O)c4)cc3c21` [Example 33.1, 8-[5-(1-Hydroxy-1-methyl-ethyl)-pyridin-3-yl]-3-methyl-1-(2-methyl-6-trifluoromethyl-pyridin-3-yl)-1,3-dihydro-imidazo[4,5-c]quinolin-2-one], for which the solubility thermodynamic in data set [1] amounted to 423 µg/mL (≈ 857 µM). Also, in data set [2], the “HT-Perm logPe pH6.8” value is −4.5. Also, the IC50 on mTOR was found to be 92 nM.
Turning to `CCNc1ncc(-c2ccc3ncc4c(c3c2)n(-c2ccc(N3CC[C@@H](O)C3)nc2C)c(=O)n4C)cc1C(F)(F)F` [Example 34.2, 8-(6-Ethylamino-5-trifluoromethyl-pyridin-3-yl)-1-[6-((R)-3-hydroxy-pyrrolidin-1-yl)-2-methyl-pyridin-3-yl]-3-methyl-1,3-dihydro-imidazo[4,5-c]quinolin-2-one], the solubility thermodynamic in data set [1] was determined as 23 µg/mL (≈ 40.8 µM). The “HT-Perm logPe pH6.8” value in data set [2] is recorded as −3.9. Also, the IC50 at mTOR amounted to 36 nM.
`CCNc1ncc(-c2ccc3ncc4c(c3c2)n(-c2ccc(N3CC[C@@H](O)C3)nc2C)c(=O)n4C)cc1COCC` [Example 34.4, 8-(5-Ethoxymethyl-6-ethylamino-pyridin-3-yl)-1-[6-((R)-3-hydroxy-pyrrolidin-1-yl)-2-methyl-pyridin-3-yl]-3-methyl-1,3-dihydro-imidazo[4,5-c]quinolin-2-one]: in data set [1], the solubility thermodynamic is 172 µg/mL (≈ 311 µM). The “HT-Perm logPe pH6.8” value in data set [2] is −4.1. Besides, the IC50 on mTOR turned out to be 214 nM.
